Columns and labels:
[1] = Stability of various stannous compounds to air oxidation, one hour (Table XII); assay type: physicochemical; details: for Stannous Concentration Before Aeration: 98 ml saline containing 2 ml 1N HCl; for Stannous Concentration After Aeration / % Not Oxidized tin: air bubbled for one hour; for % Not Oxidized tin: 60 min
Protocol: Six salts of stannous compounds were each dissolved in 98 ml of saline containing 2 ml 1N HCl. The solutions were analyzed in order to measure the stannous ion concentration and then were subjected to oxidation conditions by bubbling air through the solutions for one hour. The solutions were analyzed again. […]

[2] = Stability of stannous compounds to air oxidation, 2.5 hours (Table XI); assay type: physicochemical; details: 40 ml saline and 1 ml 1N HCl
Protocol: Four salts of stannous compounds were each dissolved in a solution of 40 ml of saline and 1 ml of 1N HCl which was purged with nitrogen. The stannous concentration was measured and then the solution was subjected to oxidation conditions by bubbling air through the solution for 2.5 hours. The stannous concentration was again measured.

Row | Structure (SMILES) | Stannous Concentration Before Aeration [1] [mg/mL] | Stannous Concentration After Aeration [1] [mg/mL] | % Not Oxidized tin [1] [%] | Stannous Concentration Before Aeration [2] [mg/mL] | Stability to air oxidation (in words) ([1]; one hour air)
1 | [Cl][Sn][Cl] [Stannous Chloride, stannous chloride, reference compound] | 0.138 | 0.085 | 61.6 | 9.3 | 
2 | O=C([O-])[C@H](O)[C@@H](O)C(=O)[O-].[Sn+2] [Stannous Tartrate, stannous tartrate] | 0.247 | 0.213 | 86.2 | 18.0 | more stable than stannous chloride with tartrate or citrate ion present
